Patent publication US20100317850A1 (priority 2008, published 2010)

System: Aβ42 production
Experiment: Quantification of Aβ peptide in culture of neurons from rat fetus brain (Aβ ELISA)
Format: cell-based
Conditions: Neuron, 72 h; rat primary neuronal culture (cerebral cortex, embryonic day 18 Wistar rats); medium collected three days after addition of the compound; Aβx-42 ELISA; read-out: Aβ42 production reducing effect IC50
Description: Quantification of Aβ Peptide in Culture of Neurons from Rat Fetus Brain
(1) Rat Primary Neuronal Culture
Primary neuronal cultures were prepared from the cerebral cortex of embryonic day 18 Wistar rats (Charles River Japan, Yokohama, Japan). Specifically, the embryos were aseptically removed from pregnant rats under ether anesthesia. The brain was isolated from the embryo and immersed in an ice-cold L-15 medium (such as Invitrogen Corp. Cat #11415-064, Carlsbad, Calif., USA, or SIGMA L1518). The cerebral cortex was collected from the isolated brain under a stereoscopic microscope. The cerebral cortex fragments collected were enzymatically treated in an enzyme solution containing 0.25% trypsin (Invitrogen Corp. Cat #15050-065, Carlsbad, Calif., USA) and 0.01% DNase (Sigma D5025, St. Louis, Mo., USA) at 37° C. for 30 minutes to disperse the cells. Here, the enzymatic reaction was stopped by adding inactivated horse serum to the solution. The enzymatically treated solution was centrifuged at 1,500 rpm for five minutes to remove the supernatant. 5 to 10 mL of a medium was added to the resulting cell mass. Neurobasal medium (Invitrogen Corp. Cat #21103-049, Carlsbad, Calif., USA) supplemented with 2% B27 supplement (Invitrogen Corp. Cat #17504-044, Carlsbad, Calif., USA), 25 μM 2-mercaptoethanol (2-ME, WAKO Cat #139-06861, Osaka, Japan), 0.5 mM L-glutamine (Invitrogen Corp. Cat #25030-081, Carlsbad, Calif., USA), and Antibiotics-Antimycotics (Invitrogen Corp. Cat #15240-062, Carlsbad, Calif., USA) was used as the medium (Neurobasal/B27/2-ME). However, the above Neurobasal medium not supplemented with 2-ME (Neurobasal/B27) was used for the assay. The cells were redispersed by mild pipetting of the cell mass to which the medium was added. The cell dispersion was filtered through a 40-μm nylon mesh (Cell Strainer, Cat #35-2340, Becton Dickinson Labware, Franklin Lakes, N.J., USA) to remove the remaining cell mass, and thus a neuronal cell suspension was obtained. The neuronal cell suspension was diluted with the medium and then plated in a volume of 100 μL/well at an initial cell density of 5×10^5 cells/cm^2 in a 96-well polystyrene culture plate pre-coated with poly-L or D-lysine (Falcon Cat #35-3075, Becton Dickinson Labware, Franklin Lakes, N.J., USA coated with poly-L-lysine using the method shown below, or BIOCOAT™ cell environments Poly-D-lysine cell ware 96-well plate, Cat #35-6461, Becton Dickinson Labware, Franklin Lakes, N.J., USA). Poly-L-lysine coating was carried out as follows. 100 μg/mL of a poly-L-lysine (SIGMA P2636, St. Louis, Mo., USA) solution was aseptically prepared with a 0.15 M borate buffer (pH 8.5). […] of the solution was added to the 96-well polystyrene culture plate and incubated at room temperature for one or more hours or at 4° C. overnight or longer. Thereafter, the coated 96-well polystyrene culture plate was washed with sterile water four or more times, and then dried or rinsed with, for example, sterile PBS or medium, and used for cell plating. The plated cells were cultured in the culture plate at 37° C. in 5% CO2-95% air for one day. Then, the total amount of the medium was replaced with a fresh Neurobasal™/B27/2-ME medium, and then the cells were cultured for further three days.
The drug was added to the culture plate on Day 4 of culture as follows. The total amount of the medium was removed from the wells, and 180 μL/well of Neurobasal medium not containing 2-ME and containing 2% B-27 (Neurobasal/B27) was added thereto. A solution of the test compound in dimethyl sulfoxide (hereinafter abbreviated as DMSO) was diluted with Neurobasal/B27 to a concentration 10-fold higher than the final concentration. 20 μL/well of the dilution was added to and sufficiently mixed with the medium. The final DMSO concentration was 1% or less. Only DMSO was added to the control group.
The cells were cultured for three days after addition of the compound, and the total amount of the medium was collected. […]

Row | Compound | IC50 [µM]
1 | NC1=N[C@@]2(c3cc(NC(=O)c4cnc(OCC(F)(F)F)cn4)ccc3F)CCC[C@H]2CS1 (single isomer, unassigned) [Example 178, N-[3-((4aR*,7aS*)-2-amino-4a,5,6,7-tetrahydro-4H-cyclopenta[d][1,3]thiazin-7a-yl)-4-fluorophenyl]-5-(2,2,2-trifluoroethoxy)-pyrazine-2-carboxamide] | 0.044
2 | NC1=N[C@@]2(c3cc(NC(=O)c4ccc(C(F)(F)F)cn4)ccc3F)CCCC[C@H]2CS1 (single isomer, unassigned) [Example 106, N-[3-((4aR*,8aS*)-2-amino-4,4a,5,6,7,8-hexahydrobenzo[d][1,3]thiazin-8a-yl)-4-fluorophenyl]-5-trifluoromethylpyridine-2-carboxamide] | 0.088
3 | C[C@H]1OC[C@]2(c3cc(NC(=O)c4cnc(C(F)F)cn4)ccc3F)N=C(N)SC[C@H]12 (relative stereo) [Example 58, N-[3-((4aS*,5R*,7aS*)-2-amino-5-methyl-4a,5-dihydro-4H-furo[3,4-d][1,3]thiazin-7a-yl)-4-fluorophenyl]-5-difluoromethylpyrazine-2-carboxamide] | 0.007
4 | N#Cc1ccc(C(=O)Nc2ccc(F)c([C@]34CCO[C@H](CF)[C@H]3CSC(N)=N4)c2)nc1 (relative stereo) [Example 143, N-[3-((4aS*,5S*,8aS*)-2-amino-5-fluoromethyl-4a,5,7,8-tetrahydro-4H-6-oxa-3-thia-1-azanaphthalen-8a-yl)-4-fluorophenyl]-5-cyanopyridine-2-carboxamide] | 0.016
5 | NC1=N[C@@]2(c3cccc(-c4cccnc4F)c3)CN(c3cccc(F)n3)C[C@H]2CS1 [Example 88] | 0.075
6 | NC1=N[C@@]2(c3cc(NC(=O)c4ccc(Br)cn4)ccc3F)CCOC[C@H]2CS1 (single isomer, unassigned) [Example 142, N-[3-((4aS*,8aS*)-2-amino-4a,5,7,8-tetrahydro-4H-6-oxa-3-thia-1-azanaphthalen-8a-yl)-4-fluorophenyl]-5-bromopyridine-2-carboxamide] | 0.01
7 | NC1=N[C@@]2(c3cc(-c4cccnc4F)c(F)cc3F)CCCC[C@H]2CS1 (racemic) [Example 245, (±)-(4aR*,8aS*)-8a-[2,4-difluoro-5-(2-fluoropyridin-3-yl)phenyl]-4a,5,6,7,8,8a-hexahydro-4H-benzo[d][1,3]thiazin-2-ylamine] | 1.16
8 | NC1=N[C@@]2(c3cc(NC(=O)c4cnc(OCF)cn4)ccc3F)C[C@H](CF)OC[C@H]2CS1 [Example 41, N-[3-((4aS,7R,8aS)-2-amino-7-fluoromethyl-4a,5,7,8-tetrahydro-4H-6-oxa-3-thia-1-azanaphthalen-8a-yl)-4-fluorophenyl]-5-fluoromethoxypyrazine-2-carboxamide] | 0.006
9 | NC1=N[C@@]2(c3cc(NC(=O)c4cnc(C(F)F)cn4)ccc3F)CCO[C@H](CF)[C@H]2CS1 (relative stereo) [Example 146, N-[3-((4aS*,5S*,8aS*)-2-amino-5-fluoromethyl-4a,5,7,8-tetrahydro-4H-6-oxa-3-thia-1-azanaphthalen-8a-yl)-4-fluorophenyl]-5-difluoromethylpyrazine-2-carboxamide] | 0.032
10 | CO[C@@H]1CC[C@H]2CSC(N)=N[C@@]2(c2cc(NC(=O)c3ccc(C#N)cn3)ccc2F)C1 (relative stereo) [Example 202, N-[3-((4aR*,7R*,8aS*)-2-amino-7-methoxy-4,4a,5,6,7,8-hexahydrobenzo[d][1,3]thiazin-8a-yl)-4-fluorophenyl]-5-cyanopyridine-2-carboxamide] | 0.003
11 | NC1=N[C@@]2(c3cc(NC(=O)c4ncc(Cl)cc4Cl)ccc3F)COC[C@H]2CS1 (single isomer, unassigned) [Example 189, N-[3-((4aS*,7aS*)-2-amino-4a,5-dihydro-4H-furo[3,4-d][1,3]thiazin-7a-yl)-4-fluorophenyl]-3,5-dichloropyridine-2-carboxamide] | 0.008
12 | NC1=N[C@@]2(c3cc(NC(=O)c4cnc5ccccc5n4)ccc3F)CCC[C@H]2CS1 [Example 140] | 0.067
13 | N#Cc1ccc(C(=O)Nc2ccc(F)c([C@]34CC(F)(F)C[C@H]3CSC(N)=N4)c2)nc1 (relative stereo) [Example 94, (+)-N-[3-((4aR*,7aS*)-2-amino-6,6-difluoro-4a,5,6,7-tetrahydro-4H-cyclopenta[d][1,3]thiazin-7a-yl)-4-fluorophenyl]-5-cyanopyridine-2-carboxamide] | 0.002
14 | CC(=O)c1ccc(C(=O)Nc2ccc(F)c([C@]34CCC[C@H]3CSC(N)=N4)c2)nc1 [Example 237] | 0.08
15 | NC1=N[C@@]2(c3cc(NC(=O)c4ncc(Br)cn4)ccc3F)CCC[C@H]2CS1 (single isomer, unassigned) [Example 176, N-[3-((4aR*,7aS*)-2-amino-4a,5,6,7-tetrahydro-4H-cyclopenta[d][1,3]thiazin-7a-yl)-4-fluorophenyl]-5-bromopyrimidine-2-carboxamide] | 0.01
16 | NC(=O)c1ccc(C(=O)Nc2ccc(F)c([C@]34CCC[C@H]3CSC(N)=N4)c2)nc1 [Example 129] | 0.065
17 | NC1=N[C@@]2(c3cc(NC(=O)c4ccc(Cl)cn4)ccc3F)COC[C@H]2CS1 (relative stereo) [Example 26, N-[3-((4aS*,7aS*)-2-amino-4a,5-dihydro-4H-furo[3,4-d][1,3]thiazin-7a-yl)-4-fluorophenyl]-5-chloropyridine-2-carboxamide] | 0.0069
18 | NC1=N[C@@]2(c3cc(NC(=O)c4ccc(C(F)(F)F)cn4)ccc3F)CO[C@H](CF)[C@H]2CS1 [Example 70, N-[3-((4aS,5S,7aS)-2-amino-5-fluoromethyl-4a,5-dihydro-4H-furo[3,4-d][1,3]thiazin-7a-yl)-4-fluorophenyl]-5-trifluoromethylpyridine-2-carboxamide] | 0.002
19 | NC1=N[C@@]2(c3cc(NC(=O)c4ccc(Cl)cn4)ccc3F)CO[C@H](CF)[C@H]2CS1 [Example 71, N-[3-((4aS,5S,7aS)-2-amino-5-fluoromethyl-4a,5-dihydro-4H-furo[3,4-d][1,3]thiazin-7a-yl)-4-fluorophenyl]-5-chloropyridine-2-carboxamide] | 0.001
20 | CO[C@@H]1C[C@H]2CSC(N)=N[C@@]2(c2cc(NC(=O)c3ccc(OC(F)F)cn3)ccc2F)C1 (relative stereo) [Example 100, (+)-N-[3-((4aR*,6R*,7aS*)-2-amino-6-methoxy-4a,5,6,7-tetrahydro-4H-cyclopenta[d][1,3]thiazin-7a-yl)-4-fluorophenyl]-5-difluoromethoxypyridine-2-carb oxamide] | 0.002
21 | NC1=N[C@@]2(c3cc(NC(=O)c4ncccc4Br)ccc3F)CCC[C@H]2CS1 (single isomer, unassigned) [Example 173, N-[3-((4aR*,7aS*)-2-amino-4a,5,6,7-tetrahydro-4H-cyclopenta[d][1,3]thiazin-7a-yl)-4-fluorophenyl]-3-bromopyridine-2-carboxamide] | 0.072
22 | COc1cccnc1C(=O)Nc1ccc(F)c([C@]23CCC[C@H]2CSC(N)=N3)c1 [Example 238] | 0.35
23 | COc1cnc(C(=O)Nc2ccc(F)c([C@]34CCCC[C@H]3CSC(N)=N4)c2)cn1 (single isomer, unassigned) [Example 107, N-[3-((4aR*,8aS*)-2-amino-4,4a,5,6,7,8-hexahydrobenzo[d][1,3]thiazin-8a-yl)-4-fluorophenyl]-5-methoxypyrazine-2-carboxamide] | 0.017
